Measurements from patent US20220098154A1 (IDEAYA Biosciences, Inc., priority 2019, published 2022).

target: T1, Pol theta polymerase domain (residues 1819-2590) (Homo sapiens, UniProt O75417); assay: Primer extension assay: inhibition of polymerase activity of Pol theta (molecular beacon fluorescence); format: biochemical; conditions: Pol theta polymerase domain 4 nM; 15 min pre-incubation; fluorescence change over 30 min (ex 485 nm, em 535 nm); 11-point dilution series
T1 construct: Pol theta polymerase domain (residues 1819-2590)
T1 sequence (O75417 1819-2590): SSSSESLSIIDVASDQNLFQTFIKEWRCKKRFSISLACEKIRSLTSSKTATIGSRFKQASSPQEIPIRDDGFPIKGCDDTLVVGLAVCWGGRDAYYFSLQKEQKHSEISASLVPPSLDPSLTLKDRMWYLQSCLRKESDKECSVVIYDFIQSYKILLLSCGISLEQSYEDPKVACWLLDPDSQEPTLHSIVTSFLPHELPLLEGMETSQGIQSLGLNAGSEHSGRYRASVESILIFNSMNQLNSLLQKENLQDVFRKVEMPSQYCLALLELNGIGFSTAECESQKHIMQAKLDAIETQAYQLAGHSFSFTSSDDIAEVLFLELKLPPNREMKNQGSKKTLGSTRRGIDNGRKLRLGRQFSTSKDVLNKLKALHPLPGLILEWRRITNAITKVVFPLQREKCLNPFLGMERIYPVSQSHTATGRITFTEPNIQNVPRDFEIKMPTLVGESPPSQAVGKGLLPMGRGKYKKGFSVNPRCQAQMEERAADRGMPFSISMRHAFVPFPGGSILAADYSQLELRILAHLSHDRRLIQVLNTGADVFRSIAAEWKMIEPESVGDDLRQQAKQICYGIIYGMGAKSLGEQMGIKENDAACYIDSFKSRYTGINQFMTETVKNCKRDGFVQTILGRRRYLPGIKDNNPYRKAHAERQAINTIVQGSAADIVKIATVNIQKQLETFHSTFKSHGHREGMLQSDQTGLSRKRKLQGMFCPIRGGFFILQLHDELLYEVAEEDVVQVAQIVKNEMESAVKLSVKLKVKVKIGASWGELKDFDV
Method: The ability of the compounds of Formula (I) to inhibit polymerase activity of Pol theta was determined using the assay described below.
A mixture of 20 uL of Pol theta polymerase domain (residues 1819-2590) at a final concentration of 4 nM in assay buffer (20 m M TRIS, pH 7.80, 50 mM KCl, 10 mM MgCl2, 1 mM DTT, 0.01% BSA, 0.01% Tween20) was added to test compounds (11-point dilution series of test compounds) except the low control wells without test compounds. The above enzyme and test compound inhibitor mixture was then incubated at room temperature for 15 min. An equal volume (20 μl) of dNTP substrate mixture (48 μM) and primed molecular beacon DNA (obtained by annealing template SEQ ID NO 2: (5′-CCTTCCTCCCGTGTCTTG-TACCTTCCCGTCA-GGAGGAAGG-3′) with 5′-TAMRA and 3′-BHQ and primer DNA (SEQ ID NO: 3; 5′-GACGGGAAGG-3′) in 10 mM Tris-HCl pH 8.0, 100 mM NaCl buffer) (96 nM) in assay buffer was added to all the test wells. The inhibition activity was measured by monitoring the fluorescence change over 30 min at 535 nm upon excitation at 485 nm. The high control (DMSO with enzyme) with high fluorescence intensity represents no inhibition of polymerase reaction while the low control (DMSO with buffer) with low fluorescence intensity represents full inhibition of polymerase activity. Slope of the reaction progress curves were used to calculate the rate of polymerization. The rates were used to determine the percent inhibition using a four-parameter inhibition model to generate IC50, Hill slope and max inhibition.

`CN(C(=O)CNc1nc(C(F)(F)F)cc(C(F)(F)F)c1C#N)c1ccc2c(c1)ncn2C` [Example 50, 2-((3-cyano-4,6-bis(trifluoromethyl)pyridin-2-yl)amino)-N-methyl-N-(1-methyl-1H-benzo[d]imidazol-5-yl)acetamide] and `CN(C(=O)CNc1nc(C(F)(F)F)cc(C(F)(F)F)c1C#N)c1ccc2c(cnn2C)c1` [Example 54, 2-((3-cyano-4,6-bis(trifluoromethyl)pyridin-2-yl)amino)-N-methyl-N-(1-methyl-1H-indazol-5-yl)acetamide] cannot be ordered by IC50: under 200 nM for the first, under 200 nM for the second.

`Cc1coc2ccc(N(C)C(=O)CNc3nc(C(F)(F)F)cc(C(F)(F)F)c3C#N)cc12` [Example 51, 2-((3-cyano-4,6-bis(trifluoromethyl)pyridin-2-yl)amino)-N-methyl-N-(3-methylbenzofuran-5-yl)acetamide] and `Cc1cc2cc(N(C)C(=O)CNc3nc(C(F)(F)F)cc(C(F)(F)F)c3C#N)ccc2o1` [Example 52, 2-((3-cyano-4,6-bis(trifluoromethyl)pyridin-2-yl)amino)-N-methyl-N-(2-methylbenzofuran-5-yl)acetamide] cannot be ordered by IC50: under 200 nM for the first, under 200 nM for the second.

`CN(C(=O)CNc1nc(C(F)(F)F)cc(C(F)(F)F)c1C#N)c1ccc2sccc2c1` [Example 53, N-(benzo[b]thiophen-5-yl)-2-((3-cyano-4,6-bis(trifluoromethyl)pyridin-2-yl)-amino)-N-methylacetamide] and `CN(C(=O)CNc1nc(C(F)(F)F)cc(C(F)(F)F)c1C#N)c1ccc2[nH]ccc2c1` [Example 56, 2-((3-cyano-4,6-bis(trifluoromethyl)pyridin-2-yl)amino)-N-(1H-indol-5-yl)-N-methylacetamide] cannot be ordered by IC50: under 200 nM for the first, under 200 nM for the second.

Compared with `CN(C(=O)CNc1nc(C(F)(F)F)cc(C(F)(F)F)c1C#N)c1ccc2c(ccn2C)c1` [Example 55, 2-((3-cyano-4,6-bis(trifluoromethyl)pyridin-2-yl)amino)-N-methyl-N-(1-methyl-1H-indol-5-yl)acetamide], `CN(C(=O)CNc1nc(C(F)(F)F)cc(C(F)(F)F)c1C#N)c1ccc2ncncc2c1` [Example 57, 2-((3-cyano-4,6-bis(trifluoromethyl)pyridin-2-yl)amino)-N-methyl-N-(quinazolin-6-yl)acetamide] is higher in IC50: under 200 nM for the first, 200 to 500 nM for the second. The first is the more potent here.

`CN(C(=O)CNc1nc(C(F)(F)F)cc(C(F)(F)F)c1C#N)c1ccc2nccnc2c1` [Example 58, 2-((3-cyano-4,6-bis(trifluoromethyl)pyridin-2-yl)amino)-N-methyl-N-(quinoxalin-6-yl)acetamide] and `CN(C(=O)CNc1nc(C(F)(F)F)cc(C(F)(F)F)c1C#N)c1ccc(Br)cc1` [Example 61, N-(4-bromophenyl)-2-((3-cyano-4,6-bis(trifluoromethyl)pyridin-2-yl)amino)-N-methylacetamide] cannot be ordered by IC50: under 200 nM for the first, under 200 nM for the second.

First: CC(=O)N1Cc2ccc(N(C)C(=O)CNc3nc(C(F)(F)F)cc(C(F)(F)F)c3C#N)cc2C1 [Example 59, N-(2-acetylisoindolin-5-yl)-2-((3-cyano-4,6-bis(trifluoromethyl)pyridin-2-yl)amino)-N-methylacetamide]
Second: CN(C(=O)CNc1nc(C(F)(F)F)cc(C(F)(F)F)c1C#N)c1cc(Cl)cc(Cl)c1 [Example 60, 2-((3-cyano-4,6-bis(trifluoromethyl)pyridin-2-yl)amino)-N-(3,5-dichlorophenyl)-N-methylacetamide]
The IC50 of the first is higher: 500 to 1000 nM for the first, under 200 nM for the second. The second is the more potent here.
